The values that follow come from patent publication US20190289874A1, “STAIN PREVENTION FORMULATIONS” (WM. WRIGLEY JR. COMPANY, priority 2016, published 2019).

Some results are limits rather than exact numbers.

The nature of the assay: In vitro bovine teeth test (stain prevention solutions). The settings on record: for concentration showing a significant visible whitening effect: % by weight of solution, bovine teeth test; for stain-prevention effect: bovine teeth tests, dose response of solutions of Table 1 (FIG. 1), change in whitening index. As to the method:
HAD assay and the bovine teeth test were employed by methods generally known in the art for screening stain prevention actives. HAD assays generally included pre-coating a HAD disc with saliva for 1-2 hours and subsequently exposing the disc to a staining broth containing tea, coffee, gastric mucin, trypticase soy broth and saliva for four days. Each day, the disc was moved from staining broth to a solution with a stain prevention formulation three times. The process was repeated for four days. The disc was dried and the color was measured. […] The color of the bovine teeth was measured before and after staining.
To evaluate stain prevention effect, the whitening index of the teeth before and after staining and treatment was calculated. The white index, W, is defined as:
W*=√{square root over ((L*−1.00)^2+(a*)^2+(b*)^2)}
A pure white substance will have W value of […]. The higher the value of ΔW, the whiter the sample would be.
In total, 4-6 HA discs or bovine teeth were tested for each compound or combination. The values were averaged.

As to `OO` [hydrogen peroxide, reference compound], the “concentration showing a significant visible whitening effect” value is not below 0.25%. In the case of `NC(N)=O` [Urea, urea], the stain-prevention effect result was “very effective”.

Consider `CCCCCCCCCCCC(=O)N[C@@H](CCCN=C(N)N)C(=O)OCC` [LAE, lauroyl arginine ethyl ether], for which the “concentration showing a significant visible whitening effect” value is on record as not below 0.05% and the stain-prevention effect result was “very effective”.

Take `O=P([O-])([O-])OP(=O)([O-])[O-].[Na+].[Na+].[Na+].[Na+]` [SPP, sodium pyrophosphate]: the stain-prevention effect entry was “very effective”. As for `O=P(O)(O)OP(=O)(O)OP(=O)(O)O` [STP, sodium tripolyphosphate], the “concentration showing a significant visible whitening effect” value is listed as not below 0.1% and the stain-prevention effect entry is “very effective”. Further, the “relative effectiveness for stain prevention” value (comparison between compounds or combinations) was “more effective”.
